The subject of data set [1] is colitis induced by DSS and TNBS. The note with it: 5-HT4 receptor agonist; cited from earlier work.
Data set [2] concerns DSS exposure at 4% wt/vol. Details: method as in PMID 25072499. The conditions noted are these: DSS 4% wt/vol; untreated animals 33%; cited from earlier work.
The test system of data set [3] is naive CD4+ T cells expressing 5-HT7 receptors. Also on record: method as in PMID 17158224. The conditions noted are these: ex vivo; cited from earlier work.
In data set [4] the test system is 2,4,6-trinitrobenzenesulfonic acid (TNBS)-induced colitis. Also on record: method as in PMID 23554310, PMID 27047383. The conditions noted are these: cited from earlier work.
The test system of another data set is DSS-induced colitis. Also on record: method as in PMID 23554310. The note with it: acute DSS-induced colitis, vs controls; cited from earlier work.
Data set [5] is described as follows: Mouse in vivo pharmacokinetic studies. Also on record: species or system C57BL/6 male mice. On the procedure:
Adult C57BL/6 male mice (2–4 mo old, body weight ranging from 20 to 25 g, Charles River Laboratories) were maintained under controlled temperature (23 ± 1°C) and lighting (lights on 6:00 AM–6:00 PM) with food and water provided ad libitum. Pharmacokinetic studies were performed either via intravenous bolus infusion or through oral gavage. Mice were administered each compound intravenously by tail vein injection (1 mg/kg) or orally through gavage (5 mg/kg). Serial blood samples were collected at 5, 15, and 30 min and 1, 2, 4, 8, and 24 h after intravenous administration, and at 15, 30 min, and 1, 2, 4, 8, and 24 h after oral gavage administration. All blood samples were centrifuged at 1,500 g for 5 min. Pharmacokinetic study procedures were approved by Temple University’s Institutional Animal Care and Usage Committee and were in accordance with National Institutes of Health (NIH) guidelines. For all in vivo efficacy studies, experiments were approved by the animal ethics committee of McMaster University and conducted under Canadian guidelines for animal research.
Plasma concentrations were determined using an LC-MS/MS method. Briefly, 100-µL acetonitrile with an internal standard solution (Diltiazem, 0.1 μg/mL) was added to 50-µL plasma or tissue homogenate. After being vortexed for 1 min, the mixture was centrifuged at 3,000 g for 5 min. LC-MS/MS analysis was carried out using a high-performance liquid chromatography system consisting of an Agilent 1100 system interfaced to an API4000 SCIEX triple-quadrupole tandem mass spectrometer (Applied Biosystems/MDS Sciex, Foster City, CA). MC-170073, MC-230078, MC-230079, and the internal standard were separated by using a Phenomenex (Torrance, CA) C18 column (2.0 × 50 mm). The mobile phase consisted of solvent A (0.1% formic acid in water) and solvent B (0.1% formic acid in acetonitrile). A linear gradient of solvent B from 5 to 95% was used. The detection and quantification of analytes were performed with the m/z transition 347/191 for MC-170073, MC-230078, and MC-230079, and m/z 415/178 for diltiazem.

The mark [6] stands for this setting: male, C57BL/6, plasma, IV, 1 mg/kg.
[7] abbreviates: male, C57BL/6, plasma, oral gavage, 5 mg/kg.

As for `[H]/N=C(/NCCCCC)N/N=C/c1c[nH]c2ccc(OC)cc12` [tegaserod], the “effect on development of colitis” value in data set [1] is recorded as “protective actions”.

Regarding `CC1CCN(CC[C@H]2CCCN2S(=O)(=O)c2cccc(O)c2)CC1` [SB-269970, (R)-3-(2-(2-(4-methylpiperidin-1-yl)-ethyl)pyrrolidine-1-sulfonyl)phenol], the mortality rate in data set [2] was more than 60%. Further, in data set [3], the “rapid T cell responses upon 5-HT exposure” value was “abrogated”. Besides, the “effect on TNBS-induced colitis” value in data set [4] was “only a minor impact”. Besides, the “severity of colitis and production of proinflammatory cytokines” value in the data set with DSS-induced colitis is on record as “significantly reduced”.

One may read the bioavailability as dose-corrected exposure relative to a reference, in per cent. Broadly, the AUC is the area under the concentration-time curve, a measure of exposure. High values mean high exposure, low ones low exposure. What is called Cmax is the highest concentration seen after dosing. In general, Tmax refers to the time at which the peak concentration occurs. As usually defined, the clearance is the volume of plasma or blood freed of the substance per unit of time. The term half-life denotes the time needed for the level to fall by half in the phase considered. Low values mean rapid decline, high ones slow decline. For `CCC1(CC)C[C@H](CCN2CCN(c3ccc(O)cc3)CC2)OC1=O` [MC-230079], the bioavailability in data set [5] (male, C57BL/6, mouse, plasma, oral, 5 mg/kg, 5 mg/kg oral vs 1 mg/kg IV, read-out: %F (oral bioavailability)) came to 10.8%. Besides, in data set [5] (setting [6]), the AUC was determined as 97 ng·h/mL, the Cmax is 148 ng/mL, the time of peak concentration (Tmax) worked out at 10 min and the clearance was 4.2 mL/min. Besides, in data set [5] (setting [6]), the half-life is 20.1 min. Further, in data set [5] (setting [7]), the AUC was 52.5 ng·h/mL, the peak level (Cmax) was 57 ng/mL, the Tmax amounted to 30 min and the half-life was 34.9 min. The molecule also showed a CL in data set [5] (oral gavage, 5 mg/kg) of 2.07 L/h.
